Data as given in patent publication US20220153732A1, “PROTEIN SECRETION INHIBITORS” (KEZAR LIFE SCIENCES, priority 2019, published 2022).
Read-outs that look alike come from different tables or passages of the source.

Tests used:
Assay type in all cases: cell-based
[1] = system: HER3-ss+4aa/Gaussia Luciferase; test: Dox-Induced Her3-ss-Gluc Assay
In short: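 Compounds, diluted in DMSO/media containing doxycycline, were incubated at 37° C., 5% CO2 with cells seeded one day earlier. The cells stably express HER3-ss+4aa/Gaussia luciferase under T-REx control. Where no stereochemistry is shown, data refer to the mixture of stereoisomers.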

[2] = system: human multiple myeloma cell line U266B1; test: U266 Cell Viability Assay; conditions: U-266, 48 hr, U266B1 cells, Celltiter-Glo, read-out: 48 hr U266 Viability Celltiter-Glo: Mean EC50
In short: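 Viability measured by CellTiter-Glo luciferase signal after 48 h compound exposure (37 °C, 5% CO2) of U266B1 cells in 384-well format. Where stereochemistry is not shown, data refer to the stereoisomer mixture.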

[3] = system: PD1-ss+10aa/Gaussia Luciferase; test: Dox-Induced PD1-ss-Gluc Assay
In short: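 Compounds, diluted in DMSO/media with doxycycline, were added to cells plated a day earlier and kept at 37° C under 5% CO2. The cells stably express a Gaussia luciferase construct fused to PD1-ss+10aa, induced via the T-REx system. Unassigned stereochemistry means mixture data.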

[4] = system: TNFα-FL/Gaussia Luciferase; test: Dox Induced TNFα-FL-Gluc Assay
In short: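 Compounds were added in doxycycline-containing DMSO/media to cells plated the previous day and incubated at 37° C under 5% CO2. These cells stably express a TNFα-FL/Gaussia luciferase cDNA whose expression is under T-REx (Dox-inducible) control, selected with Hygromycin and Blasticidin.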

[5] = system: human multiple myeloma cell line NCI-H929; test: H929 Cell Viability Assay; conditions: 48 hr, NCI-H929 cells, Celltiter-Glo, read-out: 48 hr H929 Viability Celltiter-Glo: Mean EC50
Method: Plates were incubated at 37° C., 5% CO2 for 48 hours. After 48 hours, Celltiter-Glo® (Promega) was added to each well and luciferase signal was quantified using Tecan Infinite M1000 Pro for cell viability determination.
For chemical structures that include one or more stereoisomers, but are illustrated without indicating stereochemistry, the assay data refers to a mixture of stereoisomers.

[6] = system: IL-2-FL/Gaussia Luciferase; test: Dox Induced IL2-FL-Gluc Assay
In short: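 Compounds were added together with doxycycline in DMSO/media and incubated at 37° C., 5% CO2. The cells were a stably selected line carrying IL-2-FL/Gaussia luciferase under T-REx inducible control. Structures drawn without stereochemistry were tested as stereoisomer mixtures.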

[7] = 24 hr doxycycline induction, 293FRT/TO cells, Gaussia luciferase signal; read-out: 24 hr Dox Inducible Her3(ss + 4)Gluc 293FRT/TO: Mean IC50
[8] = 24 hr doxycycline induction, 293FRT/TO cells, Gaussia luciferase signal; read-out: 24 hr Dox Inducible PD1ssGluc 293FRT/TO: Mean IC50
[9] = 24 hr doxycycline induction, 293FRT/TO cells, Gaussia luciferase signal; read-out: 24 hr Dox Inducible TNFaFLGluc 293FRT/TO: Mean IC50
[10] = 24 hr doxycycline induction, 293FRT/TO cells, Gaussia luciferase signal; read-out: 24 hr Dox Inducible IL2FLGIuc 293FRT/TO: Mean IC50
[11] = 24 hr, doxycycline-induced, 293FRT/TO cells; read-out: 24 hr Dox Inducible Her3(ss + 4)Gluc 293FRT/TO: Mean IC50
[12] = 24 hr, doxycycline-induced, 293FRT/TO cells; read-out: 24 hr Dox Inducible PD1ssGluc 293FRT/TO: Mean IC50
[13] = 24 hr, doxycycline-induced, 293FRT/TO cells; read-out: 24 hr Dox Inducible TNFaFLGluc 293FRT/TO: Mean IC50
[14] = 24 hr, doxycycline-induced, 293FRT/TO cells; read-out: 24 hr Dox Inducible IL2FLGIuc 293FRT/TO: Mean IC50

Structure (SMILES) | IC50 [1, 7] [µM] | EC50 [2] [µM] | IC50 [3, 8] [µM] | IC50 [4, 9] [µM] | EC50 [5] [µM] | IC50 [6, 10] [µM] | IC50 [1, 11] [µM] | IC50 [3, 12] [µM] | IC50 [4, 13] [µM] | IC50 [6, 14] [µM] | IC50 ([1]; read-out: 24 hr Dox Inducible Her3(ss + 4)Gluc 293FRT/TO: Mean IC50; 24 hr doxycycline induction, 293FRT/TO cells, Gaussia luciferase signal) [µM] | IC50 ([3]; read-out: 24 hr Dox Inducible PD1ssGluc 293FRT/TO: Mean IC50; 24 hr doxycycline induction, 293FRT/TO cells, Gaussia luciferase signal) [µM] | IC50 ([4]; read-out: 24 hr Dox Inducible TNFaFLGluc 293FRT/TO: Mean IC50; 24 hr doxycycline induction, 293FRT/TO cells, Gaussia luciferase signal) [µM] | IC50 ([6]; read-out: 24 hr Dox Inducible IL2FLGIuc 293FRT/TO: Mean IC50; 24 hr doxycycline induction, 293FRT/TO cells, Gaussia luciferase signal) [µM]
CC(C)OC(C)(C)c1csc(NC(=O)c2cccn2Cc2ccc([N+](=O)[O-])cc2)n1 [Compound A53, N-(4-(2-isopropoxypropan-2-yl)thiazol-2-yl)-1-(4-nitrobenzyl)-1H-pyrrole-2-carboxamide] | 1.92 | > 25 | 1.38 | 19.1 | 17.3 | 1.2 |  |  |  |  |  |  |  | 
CC(C)OC(C)(C)c1csc(NC(=O)c2cccn2[C@H](C)c2ccncc2)n1 [Compound A49, (R)-N-(4-(2-isopropoxypropan-2-yl)thiazol-2-yl)-1-(1-(pyridin-4-yl)ethyl)-1H-pyrrole-2-carboxamide] | 2.58 | > 25 | 1.21 | 23.6 | > 25 | 1.89 |  |  |  |  |  |  |  | 
O=C(Nc1nc(C2CCN(c3ccccc3)CC2)cs1)c1cccn1CCCc1ccncc1 [Compound A285] | 1.84 | 16.7 | 1.23 | 16.1 | 17.8 | 2.86 |  |  |  |  |  |  |  | 
O=C(Nc1nc(C2CCCN(c3ccccc3)C2)cs1)c1cccn1Cc1ccncc1 (stereo not drawn) [Compound A306, N-(4-(1-phenylpiperidin-3-yl)thiazol-2-yl)-1-(pyridin-4-ylmethyl)-1H-pyrrole-2-carboxamide] |  | > 25 |  |  | 11.2 |  | 0.495 | 0.184 | 1.79 | 0.489 |  |  |  | 
CC(C)c1csc(CNC(=O)c2cccn2Cc2ccncc2)n1 [Compound A117, N-((4-isopropylthiazol-2-yl)methyl)-1-(pyridin-4-ylmethyl)-1H-pyrrole-2-carboxamide] | > 25 | > 25 | > 25 | > 25 | > 25 | > 25 |  |  |  |  |  |  |  | 
CC(C)OC(C)(C)c1csc(NC(=O)c2c(Cl)ccn2Cc2ccncc2)n1 [Compound A86, 3-chloro-N-(4-(2-isopropoxypropan-2-yl)thiazol-2-yl)-1-(pyridin-4-ylmethyl)-1H-pyrrole-2-carboxamide] | > 25 | > 25 | 8 | > 25 | > 25 | > 25 |  |  |  |  |  |  |  | 
Cc1cnc(NC(=O)c2cccn2Cc2ccncc2)s1 [Compound A72, N-(5-methylthiazol-2-yl)-1-(pyridin-4-ylmethyl)-1H-pyrrole-2-carboxamide] | 6.11 | > 25 | 2.47 | > 25 | > 25 | 22.4 |  |  |  |  |  |  |  | 
O=C(Nc1nc(/C=C/c2ccc3c(n2)OCO3)cs1)c1cccn1Cc1ccncc1 [Compound A272] | 1.72 | > 25 | 0.261 | > 25 | > 25 | > 25 |  |  |  |  |  |  |  | 
CC(C)c1coc(NC(=O)c2cccn2Cc2ccncc2)n1 [Compound B5, N-(4-isopropyloxazol-2-yl)-1-(pyridin-4-ylmethyl)-1H-pyrrole-2-carboxamide] |  | > 25 |  |  | > 25 |  | 12.6 | 3.24 | > 25 | 10.6 |  |  |  | 
O=C(Nc1ncc(CCO)s1)c1cccn1Cc1ccncc1 [Compound A119] | > 25 | > 25 | > 25 | > 25 | > 25 | > 25 |  |  |  |  |  |  |  | 
Cc1ccc2nc(NC(=O)c3cccn3Cc3ccncc3)sc2c1 [Compound A73] | 7.28 | > 25 | 2.47 | > 25 | > 25 | 2.02 |  |  |  |  |  |  |  | 
CC(C)OC(C)(C)c1nc(NC(=O)c2cccn2Cc2ccncc2)sc1Br [Compound A30] | 0.809 | > 25 | 0.552 | 11.8 | 22.7 | 0.927 |  |  |  |  |  |  |  | 
O=C(Nc1nc(Cc2ccccc2)cs1)c1cccn1Cc1ccncc1NCc1ccccc1 [Compound A213, 1-((3-(benzylamino)pyridin-4-yl)methyl)-N-(4-benzylthiazol-2-yl)-1H-pyrrole-2-carboxamide] | 4.94 | 17.7 | 12.1 | > 25 | 13.8 | 6.05 |  |  |  |  |  |  |  | 
O=C(Nc1nc([C@@H]2CCCC[C@@H]2c2ccccc2)cs1)c1cccn1Cc1ccncc1 [Compound A298] |  | > 25 |  |  | 13.5 |  | 0.482 | 0.26 | 1.67 | 0.45 |  |  |  | 
C[C@@H](OC(C)(C)c1csc(NC(=O)c2cccn2Cc2ccncc2)n1)c1ccccc1 [Compound A18, (R)-N-(4-(2-(1-phenylethoxy)propan-2-yl)thiazol-2-yl)-1-(pyridin-4-ylmethyl)-1H-pyrrole-2-carboxamide] | 0.461 | > 25 | 0.226 | 1.35 | 15.1 | 0.718 |  |  |  |  |  |  |  | 
CC(C)OC(C)(C)c1csc(NC(=O)c2sccc2-c2ccncc2)n1 [Compound A348] |  | 18.3 |  |  | 17 |  | > 25 | > 25 | > 25 | > 25 |  |  |  | 
CC(C)OC(C)(C)c1csc(NC(=O)c2ccn(Cc3ccncc3)c2)n1 [Compound A122, N-(4-(2-isopropoxypropan-2-yl)thiazol-2-yl)-1-(pyridin-4-ylmethyl)-1H-pyrrole-3-carboxamide] | > 25 | > 25 | > 25 | > 25 | > 25 | > 25 |  |  |  |  |  |  |  | 
CC(C)OC(C)(C)c1csc(NC(=O)c2cccn2CC2CC(=O)N(C)C2)n1 (stereo not drawn) [Compound A210, N-(4-(2-isopropoxypropan-2-yl)thiazol-2-yl)-1-((1-methyl-5-oxopyrrolidin-3-yl)methyl)-1H-pyrrole-2-carboxamide] |  | > 25 |  |  | > 25 |  |  |  |  |  | > 25 | > 25 | > 25 | > 25
C/C(=C\c1ccccc1)c1csc(NC(=O)c2cccn2Cc2ccncc2)n1 [Compound A247, N-(4-(1-phenylprop-1-en-2-yl)thiazol-2-yl)-1-(pyridin-4-ylmethyl)-1H-pyrrole-2-carboxamide] | 0.377 | > 25 | 0.146 | 2.32 | > 25 | 0.788 |  |  |  |  |  |  |  | 
CNC(=O)c1ccc(/C=C/c2csc(NC(=O)c3cccn3Cc3ccncc3)n2)cc1 [Compound A239] | > 25 | > 25 | 1.51 | > 25 | > 25 | > 25 |  |  |  |  |  |  |  | 
Cc1nc(NC(=O)c2cccn2Cc2ccncc2)sc1C [Compound A58, N-(4,5-dimethylthiazol-2-yl)-1-(pyridin-4-ylmethyl)-1H-pyrrole-2-carboxamide] | 3.53 | > 25 | 1.5 | > 25 | > 25 | 7.06 |  |  |  |  |  |  |  | 
O=C(Nc1nc(CCO)cs1)c1cccn1Cc1ccncc1 [Compound A120] | > 25 | > 25 | > 25 | > 25 | > 25 | > 25 |  |  |  |  |  |  |  | 
